The text below walks through data of the supplement of paper PMC10307832.

Holding throughout (assay): relative viability (nuclei count vs DMSO), 5 days (fraction); higher = more cells survive
Compound in assay [1]: CN(c1ncccc1CNc1nc(Nc2ccc3c(c2)CC(=O)N3)ncc1C(F)(F)F)S(C)(=O)=O + CC(=O)Nc1cccc(-n2c(=O)n(C3CC3)c(=O)c3c(Nc4ccc(I)cc4F)n(C)c(=O)c(C)c32)c1 [Trametinib] (partner 0.02 µM)
An outline of the steps: (§1)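 After 5 days of treatment, lung cancer cells in 1536-well plates were fixed and stained in a single step (final 0.05% Triton X-100, 1% formaldehyde, 1 ug/ml Hoechst) and their nuclei counted on 4× images. Treatment had been applied by pin tool the day after seeding as one drug alone or as a fixed anchor-drug dose with five library-drug doses (not always all listed) in √10 steps. Relative viability is the nuclei count of treated wells divided by that of vehicle wells, and values are medians of duplicate plates.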

Compound in assay [2]: CN(c1ncccc1CNc1nc(Nc2ccc3c(c2)CC(=O)N3)ncc1C(F)(F)F)S(C)(=O)=O + CC1(C)CCC(c2ccc(Cl)cc2)=C(CN2CCN(c3ccc(C(=O)NS(=O)(=O)c4ccc(N[C@H](CCN5CCOCC5)CSc5ccccc5)c(S(=O)(=O)C(F)(F)F)c4)cc3)CC2)C1 [Navitoclax] (partner 0.5 µM)
An outline of the steps:
as §1

Compound in assay [3]: CN(c1ncccc1CNc1nc(Nc2ccc3c(c2)CC(=O)N3)ncc1C(F)(F)F)S(C)(=O)=O + N=C(N)NC(=N)NCCc1ccccc1 [Phenformin] (partner 250 µM)
An outline of the steps: as §1

Compound in assay [4]: CN(c1ncccc1CNc1nc(Nc2ccc3c(c2)CC(=O)N3)ncc1C(F)(F)F)S(C)(=O)=O + Nc1nc2[nH]cc(CCc3ccc(C(=O)N[C@@H](CCC(=O)O)C(=O)O)cc3)c2c(=O)[nH]1 [Pemetrexed] (partner 0.2 µM)
An outline of the steps:
as §1

As for LOU-NH91, the relative viability in assay [1] (first compound 0.01 µM) was 0.802; in assay [1] (first compound 0.03162 µM) it was 0.793; in assay [1] (first compound 0.1 µM) it was 0.75; in assay [1] (first compound 0.3162 µM) it was 0.819; in assay [1] (first compound 1 µM), 0.787; in assay [2] (first compound 0.01 µM), 0.695. In addition, the relative viability came out at 0.751 in assay [2] (first compound 0.03162 µM); 0.772 in assay [2] (first compound 0.1 µM); 0.762 in assay [2] (first compound 0.3162 µM); 0.793 in assay [2] (first compound 1 µM); 0.704 in assay [3] (first compound 0.01 µM); 0.776 in assay [3] (first compound 0.03162 µM). For the same cell line, the relative viability is 0.726 in assay [3] (first compound 0.1 µM); 0.716 in assay [3] (first compound 0.3162 µM); 0.792 in assay [3] (first compound 1 µM); 0.423 in assay [4] (first compound 0.01 µM); 0.368 in assay [4] (first compound 0.03162 µM); 0.375 in assay [4] (first compound 0.1 µM). The figures for the relative viability in assay [4] (first compound 0.3162 µM) and in assay [4] (first compound 1 µM) were 0.382 and 0.338, respectively.
As to NCI-H2347, the relative viability in assay [1] (first compound 0.01 µM) was 0.276; in assay [1] (first compound 0.03162 µM) it was 0.268; in assay [1] (first compound 0.1 µM), 0.27; in assay [1] (first compound 0.3162 µM), 0.277; in assay [1] (first compound 1 µM) it was 0.255; in assay [2] (first compound 0.01 µM), 0.879. The relative viability in assay [2] (first compound 0.03162 µM) amounted to 0.69; in assay [2] (first compound 0.1 µM), 0.699; in assay [2] (first compound 0.3162 µM), 0.701; in assay [2] (first compound 1 µM), 0.592; in assay [3] (first compound 0.01 µM), 0.37; in assay [3] (first compound 0.03162 µM), 0.38. Further, the relative viability in assay [3] (first compound 0.1 µM) was found to be 0.6; in assay [3] (first compound 0.3162 µM) it was 0.407; in assay [3] (first compound 1 µM) it was 0.221; in assay [4] (first compound 0.01 µM), 0.474; in assay [4] (first compound 0.03162 µM) it was 0.434; in assay [4] (first compound 0.1 µM), 0.403. Moreover, the relative viability in assay [4] (first compound 0.3162 µM) was 0.44; in assay [4] (first compound 1 µM), 0.399.
Take NCI-H2126: the relative viability in assay [1] (first compound 0.01 µM) stood at 0.51; in assay [1] (first compound 0.03162 µM) it was 0.65; in assay [1] (first compound 0.1 µM) it was 0.483; in assay [1] (first compound 0.3162 µM), 0.591; in assay [1] (first compound 1 µM), 0.537; in assay [2] (first compound 0.01 µM) it was 0.838. The relative viability in assay [2] (first compound 0.03162 µM) was found to be 0.893; in assay [2] (first compound 0.1 µM), 0.849; in assay [2] (first compound 0.3162 µM), 0.894; in assay [2] (first compound 1 µM), 0.776; in assay [3] (first compound 0.01 µM), 0.515; in assay [3] (first compound 0.03162 µM), 0.514. The relative viability in assay [3] (first compound 0.1 µM) came to 0.456; in assay [3] (first compound 0.3162 µM), 0.527; in assay [3] (first compound 1 µM), 0.491; in assay [4] (first compound 0.01 µM) it was 0.7; in assay [4] (first compound 0.03162 µM) it was 0.718; in assay [4] (first compound 0.1 µM), 0.615. In addition, the relative viability in assay [4] (first compound 0.3162 µM) amounted to 0.697; in assay [4] (first compound 1 µM), 0.632.
Turning to HCC-827, the relative viability in assay [1] (first compound 0.01 µM) came to 0.574; in assay [1] (first compound 0.03162 µM), 0.517; in assay [1] (first compound 0.1 µM), 0.496; in assay [1] (first compound 0.3162 µM) it was 0.56; in assay [1] (first compound 1 µM), 0.495; in assay [2] (first compound 0.01 µM) it was 1.01. For the same cell line, the relative viability stood at 1 in assay [2] (first compound 0.03162 µM); 0.995 in assay [2] (first compound 0.1 µM); 1.04 in assay [2] (first compound 0.3162 µM); 0.915 in assay [2] (first compound 1 µM); 0.402 in assay [3] (first compound 0.01 µM); 0.465 in assay [3] (first compound 0.03162 µM). For the same cell line, the relative viability in assay [3] (first compound 0.1 µM) came to 0.432; in assay [3] (first compound 0.3162 µM) it was 0.441; in assay [3] (first compound 1 µM), 0.404; in assay [4] (first compound 0.01 µM), 0.248; in assay [4] (first compound 0.03162 µM), 0.269; in assay [4] (first compound 0.1 µM) it was 0.257. The relative viability in assay [4] (first compound 0.3162 µM) amounted to 0.294; in assay [4] (first compound 1 µM), 0.313.
As to NCI-H3122, the relative viability in assay [1] (first compound 0.01 µM) turned out to be 0.244; in assay [1] (first compound 0.03162 µM), 0.257; in assay [1] (first compound 0.1 µM) it was 0.214; in assay [1] (first compound 0.3162 µM) it was 0.22; in assay [1] (first compound 1 µM) it was 0.201; in assay [2] (first compound 0.01 µM) it was 1.07. Further, the relative viability in assay [2] (first compound 0.03162 µM) stood at 1.01; in assay [2] (first compound 0.1 µM), 0.941; in assay [2] (first compound 0.3162 µM), 0.977; in assay [2] (first compound 1 µM), 0.936; in assay [3] (first compound 0.01 µM), 0.389; in assay [3] (first compound 0.03162 µM), 0.373. Also, the relative viability is 0.36 in assay [3] (first compound 0.1 µM); 0.317 in assay [3] (first compound 0.3162 µM); 0.354 in assay [3] (first compound 1 µM); 0.202 in assay [4] (first compound 0.01 µM); 0.194 in assay [4] (first compound 0.03162 µM); 0.175 in assay [4] (first compound 0.1 µM). Besides, the relative viability was determined as 0.181 in assay [4] (first compound 0.3162 µM) and 0.193 in assay [4] (first compound 1 µM).
As for HOP-62, the relative viability in assay [1] (first compound 0.01 µM) amounted to 0.353; in assay [1] (first compound 0.03162 µM), 0.438; in assay [1] (first compound 0.1 µM), 0.379; in assay [1] (first compound 0.3162 µM) it was 0.332; in assay [1] (first compound 1 µM), 0.306; in assay [2] (first compound 0.01 µM), 1.18. Moreover, the relative viability came to 1.07 in assay [2] (first compound 0.03162 µM); 0.94 in assay [2] (first compound 0.1 µM); 1.04 in assay [2] (first compound 0.3162 µM); 0.934 in assay [2] (first compound 1 µM); 0.776 in assay [3] (first compound 0.01 µM); 0.681 in assay [3] (first compound 0.03162 µM). Besides, the relative viability was 0.628 in assay [3] (first compound 0.1 µM); 0.675 in assay [3] (first compound 0.3162 µM); 0.558 in assay [3] (first compound 1 µM); 0.34 in assay [4] (first compound 0.01 µM); 0.337 in assay [4] (first compound 0.03162 µM); 0.289 in assay [4] (first compound 0.1 µM). For the same cell line, the relative viability is 0.418 in assay [4] (first compound 0.3162 µM) and 0.28 in assay [4] (first compound 1 µM).
Turning to HCC-44, the relative viability is 1.02 in assay [1] (first compound 0.01 µM); 1.05 in assay [1] (first compound 0.03162 µM); 0.959 in assay [1] (first compound 0.1 µM); 1.09 in assay [1] (first compound 0.3162 µM); 1.12 in assay [1] (first compound 1 µM); 0.977 in assay [2] (first compound 0.01 µM). The relative viability in assay [2] (first compound 0.03162 µM) worked out at 1.15; in assay [2] (first compound 0.1 µM) it was 0.951; in assay [2] (first compound 0.3162 µM), 0.905; in assay [2] (first compound 1 µM), 0.756; in assay [3] (first compound 0.01 µM), 0.193; in assay [3] (first compound 0.03162 µM), 0.171. Moreover, the relative viability worked out at 0.297 in assay [3] (first compound 0.1 µM); 0.239 in assay [3] (first compound 0.3162 µM); 0.316 in assay [3] (first compound 1 µM); 0.668 in assay [4] (first compound 0.01 µM); 0.622 in assay [4] (first compound 0.03162 µM); 0.639 in assay [4] (first compound 0.1 µM). The relative viability worked out at 0.65 in assay [4] (first compound 0.3162 µM) and 0.611 in assay [4] (first compound 1 µM).
